# According to publication PMC8043206 (ACS Pharmacology & Translational Science, 2021):
# Tested on: SARS-CoV-2-S pseudotyped particles
# Format: cell-based
# Conditions: Calu-3 cells
row,SMILES,Activity on viral entry in PP entry assay (in words)
1,"CCOC(=O)c1ccc(OC(=O)CCCCCNC(=N)N)cc1 [NCGC00025297, Gabexate]",did not exhibit an activity
2,"N=C(N)c1ccc2cc(OC(=O)c3ccc(N=C(N)N)cc3)ccc2c1 [NCGC00160398, Nafamostat]",high potency and efficacy
3,"CN(C)C(=O)COC(=O)Cc1ccc(OC(=O)c2ccc(NC(=N)N)cc2)cc1 [NCGC00167526, Camostat]",high potency and efficacy
4,"COC(=O)[C@H](Cc1cccc(C(=N)N)c1)[C@@H](C)NC(=O)c1ccc(-c2cc[n+]([O-])cc2)cc1 [NCGC00378763, Otamixaban]",efficient activity
5,"C=Cc1cc(C(=O)Nc2ccc(C(=N)N)cc2)c(-c2ccc(C(=O)NCC3CC3)nc2C(=O)O)cc1OC [NCGC00522636, Avoralstat]",comparable inhibition activity to camostat
